This note sets out measurements from patent US20240327364A1, “THERAPEUTIC TARGETING OF GPR68 TO INDUCE FERROPTOSIS” (University Of Maryland, Baltimore, priority 2023, published 2024).

For assay [1], the target named is T1, CAMK1G (Homo sapiens, UniProt Q96NX5).
T1 construct: purchased DiscoveRx (KinomeScan service)
Kind of assay: KinomeScan. It is filed as binding. Conditions: read-out: % Control.

Assay [2] concerns the target T2, CAMK2B (Homo sapiens, UniProt Q13554).
T2 construct: purchased DiscoveRx (KinomeScan service)
Kind of assay: KinomeScan. It is filed as binding. Conditions: read-out: % Control.

Assay [3] deals with T3, CAMK2D (Homo sapiens, UniProt Q13557).
T3 construct: purchased DiscoveRx (KinomeScan service)
Kind of assay: KinomeScan. It is filed as binding. The settings on record: read-out: % Control.

Assay [4] deals with T4, CDK8 (Homo sapiens, UniProt P49336).
T4 construct: purchased DiscoveRx (KinomeScan service)
The experiment in a line: KinomeScan. It is filed as binding. Conditions: read-out: % Control.

For assay [5], the target named is CTK (Homo sapiens, UniProt P42679). Kind of assay: KinomeScan. It is filed as binding. The settings on record: read-out: % Control.
Assay [6] concerns the target T5, DRAK2 (Homo sapiens, UniProt O94768).
T5 construct: purchased DiscoveRx (Fremont, CA), KinomeScan service
The experiment in a line: KinomeScan. It is filed as binding. Conditions: read-out: % Control.

The target in assay [7] is T6, EGFR(T790M) (Homo sapiens, UniProt P00533, T790M).
T6 construct: purchased DiscoveRx (Fremont, CA)
The experiment in a line: KinomeScan. It is filed as binding. The settings on record: read-out: % Control.

The target in assay [8] is T7, EPHA2 (Homo sapiens, UniProt P29317).
T7 construct: purchased DiscoveRx (Fremont, CA)
Kind of assay: KinomeScan. It is filed as binding. The settings on record: read-out: % Control.

Assay [9] addresses T8, EPHA7 (Homo sapiens, UniProt Q15375).
T8 construct: purchased DiscoveRx (Fremont, CA)
The experiment in a line: KinomeScan. It is filed as binding. The settings on record: read-out: % Control.

The target in assay [10] is T9, EPHA8 (Homo sapiens, UniProt P29322).
T9 construct: purchased DiscoveRx (Fremont, CA)
The experiment in a line: KinomeScan. It is filed as binding. Conditions: read-out: % Control.

Assay [11] has as its target T10, FGFR1 (Homo sapiens, UniProt P11362).
T10 construct: purchased DiscoveRx (Fremont, CA)
The experiment in a line: KinomeScan. It is filed as binding. The settings on record: read-out: % Control.

Assay [12] deals with T11, IRAK3 (Homo sapiens, UniProt Q9Y616).
T11 construct: purchased DiscoveRx (Fremont, CA)
Kind of assay: KinomeScan. It is filed as binding. Conditions: read-out: % Control.

The target of assay [13] is T12, MAP4K5 (Homo sapiens, UniProt Q9Y4K4).
T12 construct: purchased DiscoveRx (Fremont, CA)
The experiment in a line: KinomeScan. It is filed as binding. The settings on record: read-out: % Control.

Assay [14] addresses T13, MINK (Homo sapiens, UniProt Q8N4C8).
T13 construct: purchased DiscoveRx
Kind of assay: KinomeScan. It is filed as binding. The settings on record: read-out: % Control.

Assay [15] addresses T14, MTOR (Homo sapiens, UniProt P42345).
T14 construct: purchased DiscoveRx
The experiment in a line: KinomeScan. It is filed as binding. Conditions: read-out: % Control.

In assay [16] the target is T15, PAK7 (Homo sapiens, UniProt Q9P286).
T15 construct: purchased DiscoveRx
Kind of assay: KinomeScan. It is filed as binding. The settings on record: read-out: % Control.

Assay [17] has as its target T16, PRKCQ (Homo sapiens, UniProt Q04759).
T16 construct: purchased DiscoveRx (Fremont, CA)
Kind of assay: KinomeScan. It is filed as binding. Conditions: read-out: % Control.

Assay [18] addresses T17, RIOK1 (Homo sapiens, UniProt Q9BRS2).
T17 construct: purchased DiscoveRx (Fremont, CA)
Kind of assay: KinomeScan. It is filed as binding. The settings on record: read-out: % Control.

Assay [19] has as its target T18, RSK3(Kin.Dom.1-N-terminal) (Homo sapiens, UniProt Q15349).
T18 construct: RSK3(Kin.Dom.1-N-terminal); purchased DiscoveRx (Fremont, CA)
Kind of assay: KinomeScan. It is filed as binding. Conditions: read-out: % Control.

Assay [20] concerns the target T19, SIK2 (Homo sapiens, UniProt Q9H0K1).
T19 construct: purchased DiscoveRx (Fremont, CA)
The experiment in a line: KinomeScan. It is filed as binding. The settings on record: read-out: % Control.

In assay [21] the target is T20, TIE2 (Homo sapiens, UniProt Q02763).
T20 construct: purchased DiscoveRx (Fremont, CA)
Kind of assay: KinomeScan. It is filed as binding. The settings on record: read-out: % Control.

Assay [22] has as its target T21, TYK2(JH2domain-pseudokinase) (Homo sapiens, UniProt P29597).
T21 construct: TYK2(JH2domain-pseudokinase); purchased DiscoveRx
Kind of assay: KinomeScan. It is filed as binding. The settings on record: read-out: % Control.

Assay [23] concerns the target T22, TYRO3 (Homo sapiens, UniProt Q06418).
T22 construct: purchased DiscoveRx
The experiment in a line: KinomeScan. It is filed as binding. The settings on record: read-out: % Control.

Assay [24] deals with T23, A3 (Homo sapiens, UniProt P0DMS8).
T23 construct: host or cells: Chem-1 cells with promiscuous Gα15
The experiment in a line: GPCR Profiler. It is filed as cell-based.

Assay [25] deals with T24, BB3 (Homo sapiens, UniProt P32247).
T24 construct: host or cells: Chem-1 cells with promiscuous Gα15
Kind of assay: GPCR Profiler. It is filed as cell-based.

Assay [26] deals with T25, CCR5 (Macaca mulatta, UniProt P61813).
T25 construct: host or cells: Chem-1 cells with Gα15
The experiment in a line: GPCR Profiler. It is filed as cell-based.

For assay [27], the target named is T26, OPRD1 (Homo sapiens, UniProt P41143).
T26 construct: host or cells: Chem-1 cells expressing Gα15
The experiment in a line: GPCR Profiler. It is filed as cell-based.

The target in assay [28] is T27, TSH (Homo sapiens, UniProt P16473).
T27 construct: host or cells: Chem-1 cells with Gα15
Kind of assay: GPCR Profiler. It is filed as cell-based.

Assay [29] concerns the target T28, VPAC1 (Homo sapiens, UniProt P32241).
T28 construct: host or cells: Chem-1 cells expressing Galpha15
Kind of assay: GPCR Profiler. It is filed as cell-based.

Assay [30] has as its system LPS-induced ALI. The experiment in a line: LPS-induced acute lung injury. It is filed as in vivo, mice. The settings on record: LPS 0.7 mg/kg intratracheally; compounds intraperitoneally. The text has this: PMN (polymorphonuclear neutrophils).
Assay [31] has as its system patient derived GBM lines. The experiment in a line: qPCR of ferroptosis markers. It is filed as cell-based, human. Conditions: 3 days. The text has this: cDNAs were generated using High-Capacity cDNA Reverse Transcription Kit with RNase Inhibitor (ThermoFisher, […]). Samples were run on a Quant Studio 5 real-time PCR system (Applied Biosystems™) with TaqMan™ Universal Master Mix II, with UNG (ThermoFisher, 4440042). Primers used were GAPDH: Hs02786624g1, GPR68: Hs00268858s1, ATF4: Hs00909569_g1, CHAC1: Hs00225520_m1, SLC7A11: Hs00921938_m1, HMOX1: Hs01110250_m1, TFRC: Hs00951083_m1.
Separate biological replicates of pdx and neurosphere cells treated with OGM for 3 days were generated. RNA was isolated, cDNA generated and qPCR was conducted on select key markers of ferroptosis (ATF4. CHAC1, HMOX1, TFRC, and SLC7A11) that were seen as dysregulated in RNAseq.
In general terms: Real-time PCR tracks product formation cycle by cycle.

T28 sequence (P32241 31-457): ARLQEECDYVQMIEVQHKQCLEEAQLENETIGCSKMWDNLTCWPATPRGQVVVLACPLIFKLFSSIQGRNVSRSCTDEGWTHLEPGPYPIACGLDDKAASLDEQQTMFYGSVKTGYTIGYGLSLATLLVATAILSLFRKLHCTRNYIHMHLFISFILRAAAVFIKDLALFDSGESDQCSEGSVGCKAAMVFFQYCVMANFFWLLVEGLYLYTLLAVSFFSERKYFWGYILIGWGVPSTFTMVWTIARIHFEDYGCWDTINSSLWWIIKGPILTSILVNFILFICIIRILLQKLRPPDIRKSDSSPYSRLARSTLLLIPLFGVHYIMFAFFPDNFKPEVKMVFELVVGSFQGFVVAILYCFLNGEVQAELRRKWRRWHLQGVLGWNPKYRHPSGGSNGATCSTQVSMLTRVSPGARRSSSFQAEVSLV
T26 sequence (P41143 whole entry, species assumed): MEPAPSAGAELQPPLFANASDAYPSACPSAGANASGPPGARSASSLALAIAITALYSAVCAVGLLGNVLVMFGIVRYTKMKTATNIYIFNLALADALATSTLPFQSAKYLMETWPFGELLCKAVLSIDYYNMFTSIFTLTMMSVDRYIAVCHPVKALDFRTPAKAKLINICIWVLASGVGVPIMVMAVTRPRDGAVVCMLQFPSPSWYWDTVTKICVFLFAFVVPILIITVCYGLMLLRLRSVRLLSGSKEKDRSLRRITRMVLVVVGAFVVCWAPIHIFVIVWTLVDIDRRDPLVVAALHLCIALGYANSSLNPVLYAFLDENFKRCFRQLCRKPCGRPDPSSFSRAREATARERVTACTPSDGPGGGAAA
T23 sequence (P0DMS8 whole entry): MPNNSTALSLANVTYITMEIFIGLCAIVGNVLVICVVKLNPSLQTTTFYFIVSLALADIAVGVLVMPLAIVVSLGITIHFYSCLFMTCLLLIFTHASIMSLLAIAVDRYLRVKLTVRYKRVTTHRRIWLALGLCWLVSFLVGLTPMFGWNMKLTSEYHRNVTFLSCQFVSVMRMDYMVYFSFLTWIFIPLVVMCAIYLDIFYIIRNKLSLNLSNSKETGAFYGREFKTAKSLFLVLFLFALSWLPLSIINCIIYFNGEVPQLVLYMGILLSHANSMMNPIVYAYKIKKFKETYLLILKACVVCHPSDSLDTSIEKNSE
T24 sequence (P32247 whole entry): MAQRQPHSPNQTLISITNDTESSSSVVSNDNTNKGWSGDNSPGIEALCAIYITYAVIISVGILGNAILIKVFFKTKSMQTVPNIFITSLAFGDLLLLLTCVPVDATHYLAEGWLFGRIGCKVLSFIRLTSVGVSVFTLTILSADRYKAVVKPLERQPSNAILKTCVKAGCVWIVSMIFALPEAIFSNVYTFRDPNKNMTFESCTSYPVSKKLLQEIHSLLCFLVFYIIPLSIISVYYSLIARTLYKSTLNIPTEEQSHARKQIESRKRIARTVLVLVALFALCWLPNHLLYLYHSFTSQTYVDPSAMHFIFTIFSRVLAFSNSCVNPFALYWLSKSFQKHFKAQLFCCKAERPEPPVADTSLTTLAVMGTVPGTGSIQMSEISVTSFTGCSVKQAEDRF
T27 sequence (P16473 21-764): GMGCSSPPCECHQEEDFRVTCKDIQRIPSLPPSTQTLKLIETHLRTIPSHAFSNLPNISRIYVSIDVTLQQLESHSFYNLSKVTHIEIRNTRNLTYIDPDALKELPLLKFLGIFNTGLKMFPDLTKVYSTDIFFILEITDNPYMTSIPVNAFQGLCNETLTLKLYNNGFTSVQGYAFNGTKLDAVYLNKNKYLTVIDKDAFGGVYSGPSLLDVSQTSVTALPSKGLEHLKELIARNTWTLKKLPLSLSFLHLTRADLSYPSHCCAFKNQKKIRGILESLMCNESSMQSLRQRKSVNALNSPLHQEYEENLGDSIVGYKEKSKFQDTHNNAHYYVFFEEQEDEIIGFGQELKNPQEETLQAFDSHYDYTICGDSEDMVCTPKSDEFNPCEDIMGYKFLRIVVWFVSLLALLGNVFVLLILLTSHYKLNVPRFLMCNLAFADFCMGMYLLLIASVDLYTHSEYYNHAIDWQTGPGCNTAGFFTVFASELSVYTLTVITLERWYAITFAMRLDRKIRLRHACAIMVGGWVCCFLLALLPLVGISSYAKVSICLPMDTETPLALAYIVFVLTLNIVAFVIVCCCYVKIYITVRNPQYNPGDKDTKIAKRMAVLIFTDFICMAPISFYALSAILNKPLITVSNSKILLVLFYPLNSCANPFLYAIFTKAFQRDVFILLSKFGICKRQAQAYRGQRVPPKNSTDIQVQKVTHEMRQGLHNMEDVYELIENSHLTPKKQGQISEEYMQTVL
T6 sequence (P00533 25-1210 T790M): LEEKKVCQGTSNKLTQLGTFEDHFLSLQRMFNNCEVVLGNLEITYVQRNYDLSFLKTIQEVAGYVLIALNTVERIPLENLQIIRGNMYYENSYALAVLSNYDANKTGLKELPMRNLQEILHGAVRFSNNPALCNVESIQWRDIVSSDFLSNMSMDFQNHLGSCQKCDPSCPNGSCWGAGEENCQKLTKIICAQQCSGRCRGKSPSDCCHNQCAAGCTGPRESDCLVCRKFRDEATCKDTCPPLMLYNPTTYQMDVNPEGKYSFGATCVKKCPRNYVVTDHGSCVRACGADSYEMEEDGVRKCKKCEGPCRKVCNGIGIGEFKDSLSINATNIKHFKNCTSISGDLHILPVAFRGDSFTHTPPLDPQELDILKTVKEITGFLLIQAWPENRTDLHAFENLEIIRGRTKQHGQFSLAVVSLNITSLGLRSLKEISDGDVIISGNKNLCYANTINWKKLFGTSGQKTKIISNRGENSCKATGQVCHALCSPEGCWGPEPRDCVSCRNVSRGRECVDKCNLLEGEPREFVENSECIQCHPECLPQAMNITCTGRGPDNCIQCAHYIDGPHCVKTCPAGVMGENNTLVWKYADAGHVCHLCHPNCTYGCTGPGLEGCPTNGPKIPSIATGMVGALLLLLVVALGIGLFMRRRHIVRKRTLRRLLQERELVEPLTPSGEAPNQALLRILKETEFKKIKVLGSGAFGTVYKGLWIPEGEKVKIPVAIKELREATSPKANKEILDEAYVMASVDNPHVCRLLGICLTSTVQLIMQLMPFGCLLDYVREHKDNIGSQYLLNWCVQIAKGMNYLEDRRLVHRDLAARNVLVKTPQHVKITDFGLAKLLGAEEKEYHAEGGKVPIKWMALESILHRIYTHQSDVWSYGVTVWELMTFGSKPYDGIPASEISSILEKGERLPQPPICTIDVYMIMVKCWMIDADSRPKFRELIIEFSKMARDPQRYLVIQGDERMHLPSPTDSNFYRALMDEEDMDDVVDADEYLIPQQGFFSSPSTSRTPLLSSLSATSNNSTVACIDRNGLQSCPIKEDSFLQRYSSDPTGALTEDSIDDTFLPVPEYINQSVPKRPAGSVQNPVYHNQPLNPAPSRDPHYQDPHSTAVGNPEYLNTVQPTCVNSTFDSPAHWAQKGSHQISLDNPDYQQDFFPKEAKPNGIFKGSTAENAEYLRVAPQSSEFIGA
T8 sequence (Q15375 28-998): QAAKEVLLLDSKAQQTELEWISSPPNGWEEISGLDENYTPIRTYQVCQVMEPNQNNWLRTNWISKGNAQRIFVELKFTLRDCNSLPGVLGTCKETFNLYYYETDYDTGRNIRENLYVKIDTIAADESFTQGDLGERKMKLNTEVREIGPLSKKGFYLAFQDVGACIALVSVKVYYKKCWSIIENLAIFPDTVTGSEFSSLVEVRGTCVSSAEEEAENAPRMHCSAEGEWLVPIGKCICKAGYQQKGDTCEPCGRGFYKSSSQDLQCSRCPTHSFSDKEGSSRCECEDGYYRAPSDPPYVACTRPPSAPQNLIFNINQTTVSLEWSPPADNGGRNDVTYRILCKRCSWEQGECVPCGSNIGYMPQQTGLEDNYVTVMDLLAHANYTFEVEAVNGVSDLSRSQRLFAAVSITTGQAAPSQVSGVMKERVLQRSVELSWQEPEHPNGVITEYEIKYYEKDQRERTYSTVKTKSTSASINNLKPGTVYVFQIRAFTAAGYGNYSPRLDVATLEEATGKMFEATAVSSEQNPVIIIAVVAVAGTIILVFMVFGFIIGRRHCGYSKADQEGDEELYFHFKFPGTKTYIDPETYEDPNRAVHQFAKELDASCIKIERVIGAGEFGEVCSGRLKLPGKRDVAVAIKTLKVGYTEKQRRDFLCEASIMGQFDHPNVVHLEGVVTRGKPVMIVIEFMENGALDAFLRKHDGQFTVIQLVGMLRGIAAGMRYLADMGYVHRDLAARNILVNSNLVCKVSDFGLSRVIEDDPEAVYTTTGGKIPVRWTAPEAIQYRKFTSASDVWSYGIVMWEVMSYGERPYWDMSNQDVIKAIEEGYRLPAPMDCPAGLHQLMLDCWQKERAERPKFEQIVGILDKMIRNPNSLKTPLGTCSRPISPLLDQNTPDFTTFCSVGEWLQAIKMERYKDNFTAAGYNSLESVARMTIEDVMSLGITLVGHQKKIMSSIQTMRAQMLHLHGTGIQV

Take `CCc1ccc2c(c1)C1(NN=C(c3cccc4ccccc34)S1)C(=O)N2` (stereo not shown) [OGM1, 5-ethyl-5′-naphthalen-1-ylspiro[1H-indole-3,2′-3H-1,3,4-thiadiazole]-2-one]: the remaining binding at 10 µM in assay [1] is 80%; in assay [2], 60%; in assay [3] it was 91%; in assay [4], 100%; in [5], 100%; in [6] it was 100%. The remaining binding at 10 µM in [7] was found to be 74%; in assay [8], 100%; in assay [9], 100%; in assay [10], 100%; in assay [11], 100%; in assay [12], 97%. Besides, the remaining binding at 10 µM in assay [13] is 100%; in assay [14], 97%; in assay [15], 86%; in [16], 62%; in assay [17], 99%; in [18], 100%. In addition, the remaining binding at 10 µM in assay [19], in [20], in assay [21], in assay [22] and in [23] was 100% each time. Also, the Antagonism is 3.2 in assay [24] (10 uM); −0.7 in assay [25] (10 uM); 15.8 in assay [26] (10 uM); 7.4 in assay [27] (10 uM); 5.9 in [28] (10 uM); 16.6 in assay [29] (10 uM). Moreover, the Agonism in [24] (12.5 uM) is −0.4; in assay [25] (12.5 uM) it was 1.3; in assay [26] (12.5 uM), 2.5; in assay [27] (12.5 uM), −0.1; in assay [28] (12.5 uM) it was −0.1; in [29] (12.5 uM) it was 0.
Consider `CCc1ccc2c(c1)C1(NN=C(c3ccccc3)S1)C(=O)N2` (stereo not shown) [OGM2], for which the “inflammatory cell infiltrates in BAL” value in assay [30] is reported as “reduced inflammatory cell infiltrates in BAL”. In addition, the “expression of ATF4, CHAC1, HMOX1, TFRC, SLC7A11” value in assay [31] is “induced key markers of ferroptosis”.
